The results in this text go back to PMC11813147, “Bioactivity assessment of peptides derived from salted jellyfish (Rhopilema hispidum) byproducts” (PLOS ONE, 2025).

Data set [1] concerns RAW 264.7. The data set is described as follows: Cytotoxicity assessment (MTT). The data set is classed as cell-based, Murine. As to conditions: peptide 10 µg/mL, 72 h; for Cell viability, mean±SD: relative to untreated cells, n = 3, SD. The gist of the method:
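RAW 264.7 murine macrophages seeded at 1 x 10^5 cells/well and exposed to peptides at 10 µg/mL for 72 h. MTT (0.5 mg/mL) added for 3 h, formazan dissolved in DMSO and read at 570/630 nm; viability as % of untreated after blank subtraction.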

Data set [2] can be described thus: DPPH radical scavenging assay. The data set is classed as biochemical. As to conditions: supplement tables; for DPPH, mean±SD: n = 3. The gist of the method:
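Sample mixed with 0.1 mM DPPH in 70% ethanol and kept 30 min in the dark at room temperature; absorbance read at 517 nm. Scavenging % taken from absorbance relative to a reagent-only control; Trolox standard curve gives TEAC as mM TE/mg protein.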
(In general: The DPPH test is a chemical assay of radical scavenging.)

The nature of data set [3]: ABTS radical scavenging assay. Format: biochemical. As to conditions: for ABTS, mean±SD / ABTS: supplement tables. The gist of the method: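 ABTS radical, generated with 2.45 mM potassium persulfate (12-16 h, dark, room temperature) and diluted to A734 0.74 ± 0.03, was mixed with sample 10:190 μL sample:ABTS and kept 7 min in the dark. Scavenging % from absorbance drop at 734 nm versus reagent-only control; TEAC from Trolox standard curve, as mM TE/mg protein.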

Data set [4] in a line: Ferric reducing antioxidant power (FRAP) assay. Format: biochemical. Put shortly: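 Sample mixed with FRAP reagent (300 mM acetate buffer pH 3.6, 10 mM TPTZ in 40 mM HCl, 20 mM FeCl3; 10:1:1) and kept 15 min in the dark; absorbance at 593 nm. Values from an FeSO4 standard curve, as mM FeSO4 equivalent per mg protein.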
Data set [5] deals with RAW 264.7. Nature of the data set: Anti-inflammation assay: released NO in LPS-stimulated RAW 264.7 (Griess). The data set is classed as cell-based, Murine. As to conditions: then 1 µg/mL LPS 24 h; for Released NO: peptide 10 µg/mL 1 h; for Released NO, mean±SD: peptide 10 µg/mL pre-treatment 1 h, Griess reagent, n = 3. The gist of the method:
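RAW 264.7 cells pre-treated 1 h with peptide samples at 10 µg/mL, then stimulated with 1 µg/mL LPS for 24 h. NO released into conditioned medium quantified by Griess reagent against an NO calibration curve; unstimulated cells served as negative control.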

The mark [6] stands for this setting: 10 µL sample + 190 µL FRAP solution, 15 min dark, 593 nm, FeSO4 standard curve, mean ± SD, n = 3, SD.

On to “NQKAMQELNE [P1, synthesized peptide identified from jellyfish fraction PUR20C]”, for which, in the data set on RAW 264.7 [1], the “Cell viability, mean±SD” value worked out at 85.94%. In addition, the Cell viability stood at 88.04% with RAW 264.7 [1] (replicate 1), 85.76% in the data set with RAW 264.7 [1] (replicate 2) and 84.00% with RAW 264.7 [1] (replicate 3). For the same sequence, the “DPPH, mean±SD” value in data set [2] is recorded as 1.16±0.15^H TE/mg protein. In addition, the DPPH in data set [2] (replicate 1) was 0.99 TE/mg protein; in data set [2] (replicate 2) it was 1.25 TE/mg protein; in data set [2] (replicate 3), 1.25 TE/mg protein. The “ABTS, mean±SD” value in data set [3] (mean ± SD, n = 3) stood at 4.44 TE/mg protein. The results for the ABTS in data set [3] (replicate 1), in data set [3] (replicate 2) and in data set [3] (replicate 3) were 4.91 TE/mg protein, 4.11 TE/mg protein and 4.31 TE/mg protein, respectively. The FRAP is on record as 8.61±0.12^E mM FeSO4/mg protein in data set [4] (setting [6]); 8.47 mM FeSO4/mg protein in data set [4] (supplement tables, replicate 1); 8.68 mM FeSO4/mg protein in data set [4] (supplement tables, replicate 2); 8.68 mM FeSO4/mg protein in data set [4] (supplement tables, replicate 3). The “Released NO” value with RAW 264.7 [5] (replicate 1) is 37.58 µM; in the data set on RAW 264.7 [5] (replicate 2), 38.27 µM; in the data set on RAW 264.7 [5] (replicate 3), 37.93 µM. Further, the “Released NO, mean±SD” value in the data set with RAW 264.7 [5] is listed as 37.93 µM.
As for “PFTMYFLL [P14, synthesized peptide identified from jellyfish fraction PUR20C]”, the “Cell viability, mean±SD” value in the data set on RAW 264.7 [1] is recorded as 90.09±2.78^B %. The Cell viability in the data set on RAW 264.7 [1] (replicate 1) was determined as 87.69%; in the data set with RAW 264.7 [1] (replicate 2), 89.45%; in the data set with RAW 264.7 [1] (replicate 3) it was 93.14%. In data set [2], the “DPPH, mean±SD” value was 6.29±0.53^D TE/mg protein. Also, the DPPH came out at 6.29 TE/mg protein in data set [2] (replicate 1), 5.76 TE/mg protein in data set [2] (replicate 2) and 6.82 TE/mg protein in data set [2] (replicate 3). Moreover, the “ABTS, mean±SD” value in data set [3] (mean ± SD, n = 3) is 119.57±1.33^E TE/mg protein. Also, the ABTS in data set [3] (replicate 1) is given as 118.70 TE/mg protein; in data set [3] (replicate 2) it was 118.90 TE/mg protein; in data set [3] (replicate 3), 121.11 TE/mg protein. Further, the FRAP in data set [4] (setting [6]) came to 9.24±1.05 mM FeSO4/mg protein; in data set [4] (supplement tables, replicate 1), 10.36 mM FeSO4/mg protein; in data set [4] (supplement tables, replicate 2) it was 9.10 mM FeSO4/mg protein; in data set [4] (supplement tables, replicate 3), 8.26 mM FeSO4/mg protein. The “Released NO” value is reported as 32.06 µM in the data set on RAW 264.7 [5] (replicate 1), 31.03 µM in the data set with RAW 264.7 [5] (replicate 2) and 34.48 µM with RAW 264.7 [5] (replicate 3). In the data set on RAW 264.7 [5], the “Released NO, mean±SD” value is given as 32.52±1.76^F µM.
As to “PMETDDQPNN [P17, synthesized peptide identified from jellyfish fraction PUR20C]”, in the data set with RAW 264.7 [1], the “Cell viability, mean±SD” value stood at 83.65%. Besides, the Cell viability is on record as 83.47% with RAW 264.7 [1] (replicate 1), 83.83% in the data set with RAW 264.7 [1] (replicate 2) and 83.65% in the data set with RAW 264.7 [1] (replicate 3). Further, the “DPPH, mean±SD” value in data set [2] is 5.23±0.53^D TE/mg protein. For the same sequence, the DPPH in data set [2] (replicate 1) was 4.70 TE/mg protein; in data set [2] (replicate 2) it was 5.23 TE/mg protein; in data set [2] (replicate 3), 5.76 TE/mg protein. For the same sequence, the “ABTS, mean±SD” value in data set [3] (mean ± SD, n = 3) was 4.64 TE/mg protein. The figures for the ABTS in data set [3] (replicate 1), in data set [3] (replicate 2) and in data set [3] (replicate 3) were 4.11 TE/mg protein, 4.11 TE/mg protein and 5.71 TE/mg protein, respectively. For the same sequence, the FRAP in data set [4] (setting [6]) is listed as 6.50±1.59^G mM FeSO4/mg protein; in data set [4] (supplement tables, replicate 1), 7.63 mM FeSO4/mg protein; in data set [4] (supplement tables, replicate 2), 7.21 mM FeSO4/mg protein; in data set [4] (supplement tables, replicate 3), 4.68 mM FeSO4/mg protein. For the same sequence, the figures for the “Released NO” value in the data set with RAW 264.7 [5] (replicate 1), in the data set with RAW 264.7 [5] (replicate 2) and in the data set with RAW 264.7 [5] (replicate 3) were 34.48 µM, 34.82 µM and 34.82 µM, respectively. The “Released NO, mean±SD” value with RAW 264.7 [5] is recorded as 34.71 µM.
“RARVVPMY [P6, synthesized peptide identified from jellyfish fraction PUR20C]”: in the data set on RAW 264.7 [1], the “Cell viability, mean±SD” value is listed as 85.47%. Also, the Cell viability worked out at 92.97% in the data set with RAW 264.7 [1] (replicate 1), 82.77% in the data set on RAW 264.7 [1] (replicate 2) and 80.66% in the data set with RAW 264.7 [1] (replicate 3). Besides, in data set [2], the “DPPH, mean±SD” value is recorded as 3.28 TE/mg protein. Also, the DPPH in data set [2] (replicate 1) was 3.11 TE/mg protein; in data set [2] (replicate 2) it was 2.84 TE/mg protein; in data set [2] (replicate 3), 3.90 TE/mg protein. The “ABTS radical scavenging activity (TEAC)” value in data set [3] (10 µL sample + 190 µL ABTS solution, 7 min dark, 734 nm, Trolox standard curve, mean ± SD, n = 3) is on record as “highest activity”. For the same sequence, in data set [3] (mean ± SD, n = 3), the “ABTS, mean±SD” value is recorded as 139.87±0.50^A TE/mg protein. Moreover, the ABTS in data set [3] (replicate 1) is recorded as 139.34 TE/mg protein; in data set [3] (replicate 2), 139.94 TE/mg protein; in data set [3] (replicate 3), 140.34 TE/mg protein. Further, the FRAP in data set [4] (setting [6]) is recorded as 10.78±0.63^D mM FeSO4/mg protein; in data set [4] (supplement tables, replicate 1), 10.15 mM FeSO4/mg protein; in data set [4] (supplement tables, replicate 2), 11.42 mM FeSO4/mg protein; in data set [4] (supplement tables, replicate 3) it was 10.78 mM FeSO4/mg protein. The “Released NO” value in the data set on RAW 264.7 [5] (replicate 1) is 34.82 µM; in the data set on RAW 264.7 [5] (replicate 2) it was 35.51 µM; in the data set on RAW 264.7 [5] (replicate 3), 39.65 µM. In addition, in the data set on RAW 264.7 [5], the “Released NO, mean±SD” value is 36.66 ± 2.61 µM.
With “RPLAKIIP [P8, synthesized peptide identified from jellyfish fraction PUR20C]”, in the data set with RAW 264.7 [1], the “Cell viability, mean±SD” value came out at 83.71%. Further, the Cell viability was found to be 84.35% in the data set on RAW 264.7 [1] (replicate 1), 85.23% in the data set on RAW 264.7 [1] (replicate 2) and 81.54% in the data set on RAW 264.7 [1] (replicate 3). In addition, the “DPPH, mean±SD” value in data set [2] stood at 2.22 TE/mg protein. The figures for the DPPH in data set [2] (replicate 1), in data set [2] (replicate 2) and in data set [2] (replicate 3) were 1.78 TE/mg protein, 1.78 TE/mg protein and 3.11 TE/mg protein, respectively. For the same sequence, the “ABTS, mean±SD” value in data set [3] (mean ± SD, n = 3) turned out to be 3.11 TE/mg protein. For the same sequence, the ABTS in data set [3] (replicate 1) is on record as 2.51 TE/mg protein; in data set [3] (replicate 2), 3.31 TE/mg protein; in data set [3] (replicate 3), 3.51 TE/mg protein. For the same sequence, the FRAP in data set [4] (setting [6]) is 9.31 mM FeSO4/mg protein; in data set [4] (supplement tables, replicate 1) it was 9.31 mM FeSO4/mg protein; in data set [4] (supplement tables, replicate 2), 9.52 mM FeSO4/mg protein; in data set [4] (supplement tables, replicate 3), 9.10 mM FeSO4/mg protein. In addition, the “Released NO” value amounted to 37.58 µM in the data set with RAW 264.7 [5] (replicate 1), 37.93 µM with RAW 264.7 [5] (replicate 2) and 34.82 µM in the data set with RAW 264.7 [5] (replicate 3). In addition, in the data set on RAW 264.7 [5], the “Released NO, mean±SD” value is on record as 36.78 µM.
In the case of “TDSPAPSETTD [P2, synthesized peptide identified from jellyfish fraction PUR20C]”, the “Cell viability, mean±SD” value in the data set on RAW 264.7 [1] turned out to be 85.70%. The results for the Cell viability in the data set with RAW 264.7 [1] (replicate 1), in the data set on RAW 264.7 [1] (replicate 2) and in the data set with RAW 264.7 [1] (replicate 3) were 83.12%, 86.46% and 87.52%, respectively. Moreover, the “DPPH, mean±SD” value in data set [2] worked out at 2.84 TE/mg protein. Moreover, the values for the DPPH in data set [2] (replicate 1), in data set [2] (replicate 2) and in data set [2] (replicate 3) were 2.31 TE/mg protein, 3.11 TE/mg protein and 3.11 TE/mg protein, respectively. Also, the “ABTS, mean±SD” value in data set [3] (mean ± SD, n = 3) is 2.91 TE/mg protein. In addition, the ABTS turned out to be 3.11 TE/mg protein in data set [3] (replicate 1), 2.71 TE/mg protein in data set [3] (replicate 2) and 2.91 TE/mg protein in data set [3] (replicate 3). Moreover, the FRAP worked out at 7.63 mM FeSO4/mg protein in data set [4] (setting [6]); 7.21 mM FeSO4/mg protein in data set [4] (supplement tables, replicate 1); 7.63 mM FeSO4/mg protein in data set [4] (supplement tables, replicate 2); 8.05 mM FeSO4/mg protein in data set [4] (supplement tables, replicate 3). Besides, the “Released NO” value in the data set with RAW 264.7 [5] (replicate 1) is given as 38.27 µM; in the data set on RAW 264.7 [5] (replicate 2), 37.24 µM; in the data set with RAW 264.7 [5] (replicate 3) it was 37.58 µM. Further, the “Released NO, mean±SD” value in the data set on RAW 264.7 [5] amounted to 37.70 µM.
